Results from patent US8871741B2, “Inhibition of TNF-α induced activation of NFKB by pentosan polysulfate” (Icahn School of Medicine at Mount Sinai, priority 2010, dated 2014).

What was measured:
MMP-2/MMP-9 = test: Net MMP activity in aortic extracts, synthetic colorimetric substrate; format: in vivo, rabbit; conditions: aortic arch extracts, WHHL rabbits treated with PPS; P<0.05
Method: MMP activity in aortic extracts and conditioned media from monocytes was assessed, as previously described (Jacot T A, et al., Lab Invest. 1996; 75:791-79). Briefly, aortic segments were homogenized and extracted in RIPA buffer (25 mM Tris, pH 7.4, 150 mM KCl, 5 mM EDTA, 1% Nonidet P-40, 0.5% sodium deoxycholate, and 0.1% SDS). Insoluble material was precipitated by centrifugation, and soluble extracts were collected and stored at −20° C. for further analysis. For in vitro experiments, cell supernatants were centrifuged to remove cellular debris, and diluted appropriately to normalize for cell number. Aortic extracts and conditioned media were then mixed with sample buffer (1% SDS, 0.08 M Tris pH 6.8, 4% glycerol, and 0.006% bromophenol blue), and loaded onto a 10% gelatin polyacrylamide gel, and processed as described (Jacot T A, et al., Lab Invest. 1996; 75:791-79). For reverse zymography, samples were loaded onto a 15% gelatin polyacrylamide gel containing 0.5% porcine gelatin and 6 μg recombinant gelatinase A, and processed as described (Elliot S J, et al., J Am Soc Nephrol. 1999; 10: 62-68).
MMP-2/MMP-9 net activity in aortic extracts was evaluated by using a synthetic colorimetric substrate [Ac-Pro-Leu-Gly-(2-mercapto-4-methylpentanoyl)-Leu-Gly-Oet; Calbiochem, Cambridge, Mass.], according to the manufacturer's directions.

[1] = test system: 22 month-old diabetic C57B6 mice; test: Diabetic nephropathy in aged streptozotocin-diabetic C57B6 mice (albuminuria, renal histology, morphometry, serum chemistry); format: in vivo, mouse
Method: 4 and 16-17 month-old female C57B6 mice were obtained from National Institute on Aging and were injected with streptozotocin to induce diabetes. Mice were given 50 μg/g of streptozotocin in every three days, for a total of 5-8 injections. A total of 250-400 μg/g of streptozotocin was sufficient in most of mice to induce stable hyperglycemia (≧250 mg/dL). The streptozotocin dose required to establish stable diabetes was similar between […] and 4 month-old mice. There was less than 10% of mortality in both age groups of diabetic mice with this streptozotocin protocol. Dead mice were excluded from further study. Mice with stable diabetes at 5 or 18 months of age were selected for randomization. Female C57B6 mice were chosen as the onset and nature of renal lesions in aging was documented by the inventors herein These mice have irregular, lengthened estrous cycles around 10 to 14 months of age and the cycles usually cease at 18 months of age. […] 18 month-old diabetic mice were randomly divided into PPS treated (n=10, PPS 25 mg/kg/day in drinking water) and control (n=11) groups. No PPS treatment was given to 5 month-old diabetic mice. Both age groups of diabetic mice were followed for 4 months without insulin treatment. Body weight and blood glucose levels were monitored weekly. Urine albumin excretion was measured bi-weekly using an ELISA kit (Bethyl Laboratory Inc, Houston, Tex., USA), as previously described (Zheng F, et al. Am J Pathol 2003, 162:1339-1348). Urine creatinine levels were measured in the same samples and the urine albumin excretion rate was expressed as the ratio of albumin to creatinine Blood urea nitrogen (BUN) levels and serum creatinine levels were examined at sacrifice. High-performance liquid chromatography (HPLC) was applied for determining serum creatinine levels using the method described by Yuen et al. (Am J Physiol Renal Physiol 2004, 286:F1116-1119).
Mice were sacrificed 4 months after stable hyperglycemia was established. Kidneys were perfused with a saline solution and subsequently one kidney was perfusion-fixed in situ with 4% paraformaldehyde for histologic studies. The tissues were embedded in glycol methacrylate or low melting paraffin, and stained with periodic acid Schiff (PAS) and Masson's Trichrome. Tissues were also postfixed for 1 hour in 1.0% osmium tetroxide, prestained in 1.25% uranyl acetate for 1 hour, dehydrated through a series of graded alcohol solutions, and embedded in EPON epoxy resin for electron microscopy. The glomerular volume and mesangial area were determined by examining plastic embedded sections using a digitizing tablet and video camera. The relative mesangial area was expressed as mesangial/glomerular surface area. Glomerular cell number was determined by counting the nuclear number in at least 30 glomeruli of each section. The glomerular basement membrane thickness was measured by the orthogonal intercept method on electron microscopic images. To determine the number of glomerular fenestrae, the length of was fenestrated or unfenestrated glomerular capillary endothelial cytoplasm was measured. Fenestrated endothelial cell cytoplasm was generally thin whereas the thickness of the unfenestrated endothelial cell cytoplasm was twice or more increased. Tubulointerstitial lesions were scored from 0 to 4 (0, no changes; 1+, changes affecting <25% of the sample; 2+, changes affecting 25 to 50% of the sample; 3+, changes affecting 50 to 75% of the sample; 4+, changes affecting 75 to 100% of the sample) based on tubular atrophy, increase in the thickness of basement membranes and interstitial area, and clusters of inflammatory cells.

[2] = test system: MCP-1, RANTES, CXCL-1 mRNA; test: Real-time PCR of chemokine mRNA in renal cortex; format: in vivo, mouse; conditions: PPS treated 22 month-old diabetic mice; P<0.01 vs. DN
Method: Total RNA was isolated from renal cortex using a PureYield RNA Midiprep kit (Promega, Madison, Wis.). The preparation was free of DNA contamination and 500 ng of total RNA from each sample was reverse-transcribed as previously described (Zheng F, Striker G E, Esposito C, Lupia E, Striker L J. Kidney Int 1998, 54:1999-2007; Zheng F, et al., Am Pathol 2003, 162:1339-1348). The levels of MCP-1 (monocyte chemoattractant protein-1), CXCL1 (c-x-c motif ligand 1), MIP2 (macrophage inflammatory protein 2), RANTES (regulated on activation, normal T cell expressed and secreted), ICAM-1 ([…] adhesion molecule 1), GRP78 (glucose regulatory protein 78), CHOP, and IL-6 (interleukin 6) mRNA were determined by real-time polymerase chain reaction (PCR). The primers used for the measurement were:
mRNA levels were corrected by the levels of β-actin or GAPDH mRNA. The expression of TNFα mRNA in kidney was determined by both a real time and a regular PCR using the primer of forward, 5′-[…]-3′ (SEQ ID NO: 17), reverse, 5′-[…]-3′ (SEQ ID NO: 18). GAPDH and β-actin mRNA levels were measured in the same sample.

WHHL rabbits = conditions: rabbit, in vivo, po
Method: 3-month-old female WHHL rabbits, obtained from the Institute for Experimental Animals, Kobe University School of Medicine (Shiomi M, et al., Arterioscler Thromb 1994; 14: 931-937), were fed a standard diet supplemented with 0.5% cholesterol for 45 days. […] Twenty rabbits with established lesions were randomized into two groups, one (PPS group) receiving PPS (30 mg/kg BW daily) added to the drinking water, and the other (Control group) receiving tap water for the next 30 days. […] After 30 days, the rabbits were anesthetized with ketamine hydrochloride and xylazine (60 mg and 6 mg/kg BW, respectively), and exsanguinated. Five from each group were perfusion-fixed with 4% phosphate-buffered formaldehyde solution through the femoral vein.

[3] = 22 month-old diabetic mice treated with PPS, n = 10, at sacrifice, mean±SD
[4] = 22 month-old diabetic mice, PPS 25 mg/kg/day in drinking water, 4 months
[5] = morphometric analysis, PPS treated versus untreated 22 month-old diabetic mice

Substance: pentosan polysulfate [PPS]
- Net MMP-2/MMP-9 activity, reduction compared to water-treated animals (MMP-2/MMP-9): 27.74±4.32%
- BUN [1, 3]: 21.3 ± 5.6 mg/dL
- Scr (serum creatinine) [1, 3]: 0.118 ± 0.02 mg/dL
- reduction in tubulointerstitial lesions [1, 4]: ~80%
- reduction of the increase in the albumin excretion rate [1, 4]: about 50%
- reduction of glomerular endothelial fenestrations ([1]; morphometric analysis, PPS treated 22 month-old diabetic mice): largely prevented
- glomerular basement membrane width [1, 5]: decreased
- mesangial area [1, 5]: decreased
- mRNA levels of MCP-1, RANTES, and CXCL-1 in renal cortices [2]: levels similar to 22 month-old non-diabetic
- bleeding (WHHL rabbits): not observed
